Experiments:
AncB1B = test system: T1, AncB1B; test: isothermal titration calorimetry; assay type: binding, synthetic construct; conditions: 25 °C, 20 mM Tris, 150 mM NaCl, pH 7.6; 10 µM propeller; single site model, five near-identical non-cooperative sites
T1 construct: single ancestral motif of about 47 residues, blade frame, first-library variant with F23L from error-prone PCR; homo-pentamer; E. coli (pET29), GlcNAc-resin purified

AncA1B = test system: T2, AncA1B; test: isothermal titration calorimetry; assay type: binding, synthetic construct; conditions: 25 °C, 20 mM Tris, 150 mM NaCl, pH 7.6; 10 µM propeller; single site model, five near-identical non-cooperative sites
T2 construct: single ancestral motif of about 47 residues, blade frame, from second ancestral library; homo-pentamer; E. coli (pET29), GlcNAc-resin purified

CC(=O)N[C@H]1C(O)O[C@H](CO)[C@@H](O)[C@@H]1O (some centres unmarked) [GlcNAc]
binding affinity (AncB1B): The earliest evolutionary stage of single motifs was sampled using AncA1B and AncB1B | binding affinity (AncA1B): five different parameters were measured for representative variants along the evolutionary trajectory
